Structures are written as SMILES.

The test deals with IL-12 production in human PBMC or THP-1 cells. Description: Human in vitro assay: inhibition of IL-12 production in human PBMC or THP-1 cells (ELISA). The test is classed as cell-based. Conditions: THP-1, human PBMC or THP-1 cells, IFNγ plus LPS or SAC stimulation, representative in vitro data. An excerpt: The biological activities of the compounds of the invention can be evaluated by a number of cell-based assays. One of such assays can be conducted using cells from human peripheral blood mononuclear cells (PBMC) or human monocytic cell line (THP-1). The cells are stimulated with a combination of human interferon-γ (IFNγ) and lipopolysaccharide or a combination of IFNγ and Staphylococcus aureus Cowan I in the presence of a test compound. The level of inhibition of IL-12 production can be measured by determining the amount of p70 by using a sandwich ELISA assay with anti-human IL-12 antibodies. IC50 of the test compound can then be determined. Specifically, PBMC or THP-1 cells are incubated with the test compound. Cell viability was assessed using the bioreduction of MTS [3-(4,5-dimethylthiazol-2-yl)-5-(3-carboxymethoxyphenyl)-2-(4-sulfophenyl)-2H-tetrazolium] (Promega, Madison, Wis.).
Reagents. Staphylococcus aureus Cowan I (SAC) was obtained from Calbiochem (La Jolla, Calif.), and lipopolysaccharide (LPS, Serratia marscencens) was obtained from Sigma (St Louis, Mo.). Human and mouse recombinant IFNγ were purchased from Boehringer Mannheim (Mannheim, Germany) and Pharmingen (San Diego, Calif.), respectively.
Human In Vitro Assay. Human PBMC were isolated by centrifugation using Ficoll-Paque (Pharmacia Biotech, Uppsala, Sweden) and prepared in RPMI medium supplemented with 10% fetal calf serum (FCS), 100 U/mL penicillin, and 100 μg/mL streptomycin. PBMC were plated in wells of a 96-well plate at a concentration of 5×10^5 cells/well, and primed by adding IFNγ (30 U/mL) for 22 h and stimulated by adding LPS (1 μg/mL), or by adding IFNγ (100 U/mL) and then stimulated by adding SAC (0.01%). A test pyrimidine compound was dissolved in DMSO, and added to wells of the 96-well plate. The final DMSO concentration was adjusted to 0.25% in all cultures, including the compound-free control. Human THP-1 cells were plated in wells, primed by adding IFNγ (100 U/mL) for 22 h and stimulated by adding SAC (0.025%) in the presence of different concentrations of the pyrimidine compound. Cell-free supernatants were taken 18 h later for measurement of cytokines. Cell viability was assessed using the bioreduction of MTS. Cell survival was estimated by determining the ratio of the absorbance in compound-treated groups versus compound-free control.
The supernatant was assayed for the amount of IL-12p40, IL-12p70, or IL-10 by using a sandwich ELISA with anti-human antibodies, i.e., a Human IL-12 p40 ELISA kit from R&D Systems (Berkeley, Calif.), and a Human IL-12 p70 or IL-10 ELISA kit from Endogen (Cambridge, Mass.). Assays were based on the manufacturer's instructions.
The biological activities of compounds were tested on human PBMC or THP-1 cells.
A general note: An ELISA detects its analyte on a solid surface through an enzyme-linked reagent.
Take `Cc1cccc(/C=N/Nc2nc(CCCO)cc(N(C)C)n2)c1` [Compound 27, 3-{6-Dimethylamino-2-[N′-(3-methyl-benzylidene)-hydrazino]-pyrimidin-4-yl}-propan-1-ol]: the IC50 (as a rule, the midpoint of a concentration-inhibition curve) turned out to be 9000 nM.

Consider `COc1nc(N/N=C/c2cn(C)c3ccccc23)nc(N(C(C)C)C(C)C)n1` [Compound 1, Diisopropyl-{4-methoxy-6-[N′-(1-methyl-1H-indol-3-ylmethylene)-hydrazino]-[1,3,5]triazin-2-yl}-amine], for which the IC50 came out at 13000 nM.

With `CCN(CC)c1cc(N/N=C/c2cccc(C)c2)nc(OCCN2CCOCC2)n1` [Compound 30, Diethyl-[6-[N′-(3-methyl-benzylidene)-hydrazino]-2-(2-morpholin-4-yl-ethoxy)-pyrimidin-4-yl]-amine], the IC50 is 875 nM.

As for `Cc1[nH]c2ccc(NC(=O)c3cc(NCCN4CCOCC4)nc(N4CCSC4)n3)cc2c1C` [Compound 148, N-(2,3-dimethyl-1H-indol-5-yl)-6-(2-morpholinoethylamino)-2-(thiazolidin-3-yl)pyrimidine-4-carboxamide], the 50% inhibitory concentration (IC50) turned out to be 55 nM.

`COc1nc(N/N=C/c2c[nH]c3ccc(F)cc23)nc(N(C(C)C)C(C)C)n1` [Compound 4, {4-[N′-(5-Fluoro-1H-indol-3-ylmethylene)-hydrazino]-6-methoxy-[1,3,5]triazin-2-yl}-diisopropyl-amine]: the IC50 was 13000 nM.

`Cc1[nH]c2ccc(NC(=O)c3cc(OCCN4CCOCC4)cc(-c4ccncc4)n3)cc2c1C` [Compound 101, 4-(2-Morpholin-4-yl-ethoxy)-[2,4′]bipyridinyl-6-carboxylic acid (2,3-dimethyl-1H-indol-5-yl)-amide]: the IC50 is 20 nM.

`Cc1[nH]c2ccc(NC(=O)c3cccc(-c4ccnc(F)c4)n3)cc2c1C` [Compound 107, 2′-Fluoro-[2,4′]bipyridinyl-6-carboxylic acid(2,3-dimethyl-1H-indol-5-yl)-amide]: the IC50 came out at 193 nM.

For the compound `COc1nc(N/N=C/c2c[nH]c3ccccc23)nc(N(C(C)C)C(C)C)n1` [Compound 2, {4-[N′-(1H-Indol-3-ylmethylene)-hydrazino]-6-methoxy-[1,3,5]triazin-2-yl}-diisopropyl-amine], the IC50 was found to be 13600 nM.

For `Cc1[nH]c2ccc(NC(=O)c3cc(NCCN4CCOCC4)nc(N(C)C)n3)cc2c1C` [Compound 147, N-(2,3-dimethyl-1H-indol-5-yl)-2-(dimethylamino)-6-(2-morpholinoethylamino)pyrimidine-4-carboxamide], the half-maximal inhibitory concentration (IC50) is above 1000 nM.

`COc1ccc(CCNc2nccc(N/N=C/c3cccc(C)c3)n2)cc1OC` [Compound 17, [2-(3,4-Dimethoxy-phenyl)-ethyl]-{4-[N′-(3-methyl-benzylidene)-hydrazino]-pyrimidin-2-yl}-amine]: the IC50 was determined as 636 nM.

Take `Cc1[nH]c2ccc(NC(=O)c3cccc(-c4cn[nH]c4)n3)cc2c1C` [Compound 108, 6-(1H-Pyrazol-4-yl)-pyridine-2-carboxylic acid(2,3-dimethyl-1H-indol-5-yl)-amide]: the IC50 was found to be 218 nM.

`COCCN(C)c1cc(N/N=C/c2cccc(C)c2)nc(OCCN2CCOCC2)n1` [Compound 31, (2-Methoxy-ethyl)-methyl-[6-[N′-(3-methyl-benzylidene)-hydrazino]-2-(2-morpholin-4-yl-ethoxy)-pyrimidin-4-yl]-amine]: the IC50 was found to be 674 nM.

As to `Cc1cccc(/C=N/Nc2nc(N)nc(-c3cccnc3)n2)c1` [Compound 143, (E)-4-(2-(3-methylbenzylidene)hydrazinyl)-6-(pyridin-3-yl)-1,3,5-triazin-2-amine], the IC50 was above 1000 nM.

With `COCCN(C)c1cc(C(=O)Nc2ccc3[nH]c(C)c(C)c3c2)nc(-c2ccncc2)c1` [Compound 102, 4-[(2-Methoxy-ethyl)-methyl-amino]-[2,4′]bipyridinyl-6-carboxylic acid(2,3-dimethyl-1H-indol-5-yl)-amide], the IC50 worked out at 2.6 nM.

Turning to `Cc1cccc(/C=N/Nc2cc(OCCN3CCOCC3)nc(-c3ccncc3)n2)c1` [Compound 141, (E)-4-(2-(6-(2-(3-methylbenzylidene)hydrazinyl)-2-(pyridin-4-yl)pyrimidin-4-yloxy)ethyl)morpholine], the IC50 was found to be 94.6 nM.

As for `O=C1CCN(c2nc(N/N=C/c3c[nH]c4ccccc34)nc(OCCc3ccccn3)n2)CC1` [Compound 11, 1-[4-[N′-(1H-Indol-3-ylmethylene)-hydrazino]-6-(2-pyridin-2-yl-ethoxy)-[1,3,5]triazin-2-yl]-piperidin-4-one], the IC50 is 500 nM.

In the case of `COCc1cc(N/N=C/c2cccc(C)c2)nc(-c2ccncc2)n1` [Compound 142, (E)-4-(methoxymethyl)-6-(2-(3-methylbenzylidene)hydrazinyl)-2-(pyridin-4-yl)pyrimidine], the IC50 was determined as 80 nM.

Consider `COc1ccc(CCOc2nc(N/N=C/c3cccc(C)c3)cc(N(C)C)n2)cc1OC` [Compound 15, {2-[2-(3,4-Dimethoxy-phenyl)-ethoxy]-6-[N′-(3-methyl-benzylidene)-hydrazino]-pyrimidin-4-yl}-dimethyl-amine], for which the IC50 lay in the range of 20 to 56 nM.

In the case of `Cc1[nH]c2ccc(NC(=O)c3cccc(-c4cccnc4)n3)cc2c1C` [Compound 106, [2,3′]Bipyridinyl-6-carboxylic acid(2,3-dimethyl-1H-indol-5-yl)-amide], the IC50 was above 1000 nM.

On to `C(=N\Nc1nc(OCCc2ccccn2)nc(N2CCC3(CC2)OCCO3)n1)/c1c[nH]c2ccccc12` [Compound 8, N-[4-(1,4-Dioxa-8-aza-spiro[4.5]dec-8-yl)-6-(2-pyridin-2-yl-ethoxy)-[1,3,5]triazin-2-yl]-N′-(1H-indol-3-ylmethylene)-hydrazine], for which the IC50 came to 500 nM.

On to `O=C(Nc1ccc2c(c1)CCC2)Nc1cccc(-c2ccncc2)n1` [Compound 100, 1-[2,4′]Bipyridinyl-6-yl-3-indan-5-yl-urea], for which the IC50 stood at 148 nM.

On to `CSc1nc(NC(=O)Nc2cccc(C)c2)nc(-c2ccncc2)n1` [Compound 144, 1-(4-(methylthio)-6-(pyridin-4-yl)-1,3,5-triazin-2-yl)-3-m-tolylurea], for which the IC50 came out at 128 nM.

In the case of `Cc1cccc(/C=N/Nc2nc(CCCOC(=O)Nc3ccc(C(F)(F)F)cc3)cc(N(C)C)n2)c1` [Compound 29, (4-Trifluoromethyl-phenyl)-carbamic acid 3-{6-dimethylamino-2-[N′-(3-methyl-benzylidene)-hydrazino]-pyrimidin-4-yl}-propyl ester], the IC50 came out at 10000 nM.

For `Cc1[nH]c2ccc(NC(=O)c3cccc(-c4cncnc4)n3)cc2c1C` [Compound 104, 6-Pyrimidin-5-yl-pyridine-2-carboxylic acid(2,3-dimethyl-1H-indol-5-yl)-amide], the IC50 is above 1000 nM.

For `CSc1nc(NC(=O)Nc2cccc(C)c2)nc(-c2cccnc2)n1` [Compound 145, 1-(4-(methylthio)-6-(pyridin-3-yl)-1,3,5-triazin-2-yl)-3-m-tolylurea], the IC50 is above 1000 nM.

As for `COc1ccc(CCOc2cc(N(C)C)nc(N/N=C/c3cccc(C)c3)n2)cc1OC` [Compound 16, {6-[2-(3,4-Dimethoxy-phenyl)-ethoxy]-2-[N′-(3-methyl-benzylidene)-hydrazino]-pyrimidin-4-yl}-dimethyl-amine], the IC50 worked out at 1060 nM.

(Values after patent US7919487B2, “Heteroaryl compounds” (Synta Pharmaceuticals Corporation, priority 2004, dated 2011).)
